According to patent US10975056B2 (GlaxoSmithKline Intellectual Property Development Limited, priority 2016, dated 2021):
Where “and” joins values, the source holds several entries; their conditions need not be identical. Identical values can stand only once. Like-named read-outs stand apart in the source and are kept apart here.

Assays:
DNMT1 = DNMT1 (Homo sapiens, UniProt P26358); test: DNMT1 biochemical activity, breaklight assay and/or SPA assay
[1] = test system: erythroid progenitor cells (EPCs); test: Fetal hemoglobin (HbF) ELISA in day 7 erythroid progenitor cells; type: cell-based, human; conditions: Homo sapiens, Erythroid progenitor cell, HbF ELISA, day 7 EPCs, 5 days; read-out: EPC ELISA (pEC50 category) (converted);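 also: for fetal hemoglobin induction normalized to vehicle-treated cells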
In short: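 Read-out was OD450 from an HRP/TMB sandwich ELISA on lysates, normalized to DMSO-only control wells. Thawed day 7 EPCs from human marrow CD34+ cells had been treated for 5 days at 37° C with Compound A, 22 concentrations […].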

[2] = binned activity in either the breaklight or the SPA assay
[3] = breaklight assay and/or SPA assay, repeated experimental runs, read-out: average pIC50 against DNMT1 (converted)

Chain of DNMT1 (P26358 whole entry, looked up): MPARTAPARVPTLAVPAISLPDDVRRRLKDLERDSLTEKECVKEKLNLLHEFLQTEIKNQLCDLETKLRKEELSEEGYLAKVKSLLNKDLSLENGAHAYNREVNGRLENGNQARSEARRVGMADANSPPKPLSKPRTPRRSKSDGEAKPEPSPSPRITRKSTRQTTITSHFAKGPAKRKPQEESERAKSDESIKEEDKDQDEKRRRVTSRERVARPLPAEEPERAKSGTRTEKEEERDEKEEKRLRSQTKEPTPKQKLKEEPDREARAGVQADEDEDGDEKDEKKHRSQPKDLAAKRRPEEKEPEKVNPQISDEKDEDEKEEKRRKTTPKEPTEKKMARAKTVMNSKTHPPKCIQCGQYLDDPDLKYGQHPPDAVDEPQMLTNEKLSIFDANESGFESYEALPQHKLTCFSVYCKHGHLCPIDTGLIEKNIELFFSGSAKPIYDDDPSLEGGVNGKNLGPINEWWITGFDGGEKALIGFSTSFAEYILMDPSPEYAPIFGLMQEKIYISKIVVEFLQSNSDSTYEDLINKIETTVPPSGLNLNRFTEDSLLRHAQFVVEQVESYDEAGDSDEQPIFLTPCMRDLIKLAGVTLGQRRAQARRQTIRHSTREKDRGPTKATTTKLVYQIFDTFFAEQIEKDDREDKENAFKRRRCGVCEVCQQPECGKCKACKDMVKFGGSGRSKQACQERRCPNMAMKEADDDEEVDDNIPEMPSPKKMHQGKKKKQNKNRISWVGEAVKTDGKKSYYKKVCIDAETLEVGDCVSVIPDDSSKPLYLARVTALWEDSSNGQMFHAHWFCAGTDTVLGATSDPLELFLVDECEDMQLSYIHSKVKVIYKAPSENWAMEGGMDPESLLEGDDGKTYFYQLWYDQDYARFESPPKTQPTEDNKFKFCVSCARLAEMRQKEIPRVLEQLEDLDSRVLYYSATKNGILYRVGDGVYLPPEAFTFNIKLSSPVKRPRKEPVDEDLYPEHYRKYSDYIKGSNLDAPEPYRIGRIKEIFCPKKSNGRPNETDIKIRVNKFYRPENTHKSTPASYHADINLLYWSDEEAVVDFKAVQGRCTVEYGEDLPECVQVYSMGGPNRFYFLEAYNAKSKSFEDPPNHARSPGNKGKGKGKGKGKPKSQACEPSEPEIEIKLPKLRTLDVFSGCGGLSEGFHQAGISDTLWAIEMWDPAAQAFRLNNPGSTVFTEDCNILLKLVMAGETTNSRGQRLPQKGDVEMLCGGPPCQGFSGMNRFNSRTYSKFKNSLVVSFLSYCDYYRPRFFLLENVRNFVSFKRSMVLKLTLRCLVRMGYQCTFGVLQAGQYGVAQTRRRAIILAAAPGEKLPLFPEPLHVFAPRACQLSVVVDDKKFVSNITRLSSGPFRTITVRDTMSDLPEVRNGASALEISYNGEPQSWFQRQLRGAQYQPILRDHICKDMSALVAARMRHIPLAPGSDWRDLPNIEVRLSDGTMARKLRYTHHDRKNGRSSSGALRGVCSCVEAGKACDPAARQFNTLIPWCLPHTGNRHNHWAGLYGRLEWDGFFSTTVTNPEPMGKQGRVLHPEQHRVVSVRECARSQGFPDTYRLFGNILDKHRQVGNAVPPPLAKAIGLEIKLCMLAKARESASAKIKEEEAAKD

| Compound | DNMT1 BioChemical (pIC50 category) (DNMT1; [2]) | EC50 [1] [nM] | average pIC50 against DNMT1 (DNMT1; breaklight assay and/or SPA assay, repeated experimental runs) | IC50 (DNMT1; [3]) | IC50 (DNMT1; binned activity in either the breaklight or the SPA assay, read-out: DNMT1 BioChemical (pIC50 category) (converted)) [nM] |
| --- | --- | --- | --- | --- | --- |
| CCc1c(C#N)c(SC(C(N)=O)c2ccccc2)nc(N2CCC(NCc3ccc(F)cc3)CC2)c1C#N (stereo not drawn) [Example 474, 2-((3,5-dicyano-4-ethyl-6-(4-((4-fluorobenzyl)amino)piperidin-1-yl)pyridin-2-yl)thio)-2-phenylacetamide] | D (Category D: ≥6.5) | < 316 | – | – | – |
| CCc1c(C#N)c(SC(C(N)=O)c2ccccc2)nc(N(C)CCN2CCC[C@H]2CO)c1C#N (stereo partly drawn) [Example 475, 2-((3,5-dicyano-4-ethyl-6-((2-((S)-2-(hydroxymethyl)pyrrolidin-1-yl)ethyl)(methyl)amino)pyridin-2-yl)thio)-2-phenylacetamide] | D (Category D: ≥6.5) | < 316 | – | – | – |
| CCc1c(C#N)c(SC(C(N)=O)c2ccccc2)nc(N(C)CCN2[C@H](C)CC[C@@H]2C)c1C#N (stereo partly drawn) [Example 476, 2-(3,5-dicyano-6-((2-((2S,5R)-2,5-dimethylpyrrolidin-1-yl)ethyl)(methyl)amino)-4-ethylpyridin-2-ylthio)-2-phenylacetamide] | D (Category D: ≥6.5) | < 316 | – | – | – |
| CCc1c(C#N)c(SC(C(N)=O)c2ccccc2)nc(N(C)CCN2CCCCCC2)c1C#N (stereo not drawn) [Example 477, 2-((6-((2-(azepan-1-yl)ethyl)(methyl)amino)-3,5-dicyano-4-ethylpyridin-2-yl)thio)-2-phenylacetamide] | D (Category D: ≥6.5) | < 316 | > 6.5 | 100 nM | – |
| CCc1c(C#N)c(SC(C(N)=O)c2ccccc2)nc(N(C)CCN2CCCCC2)c1C#N (stereo not drawn) [Example 478, 2-((3,5-dicyano-4-ethyl-6-(methyl(2-(piperidin-1-yl)ethyl)amino)pyridin-2-yl)thio)-2-phenylacetamide] | D (Category D: ≥6.5) | < 316 | – | – | – |
| CCc1c(C#N)c(SC(C(N)=O)c2ccccc2)nc(N(C)CCN2CCC[C@@H]2CO)c1C#N (stereo partly drawn) [Example 479, 2-((3,5-dicyano-4-ethyl-6-((2-((R)-2-(hydroxymethyl)pyrrolidin-1-yl)ethyl)(methyl)amino)pyridin-2-yl)thio)-2-phenylacetamide] | D (Category D: ≥6.5) | < 316 | – | – | – |
| CCc1c(C#N)c(SCc2ccc(N(C)S(C)(=O)=O)cc2)nc(N(C)CCNCCOC)c1C#N [Example 480] | D (Category D: ≥6.5) | 316 to 1000 | – | – | – |
| CCc1c(C#N)c(SCc2ccc(N(C)S(C)(=O)=O)cc2)nc(N(C)CCNC2(C)CC2)c1C#N [Example 481, N-(4-(((3,5-dicyano-4-ethyl-6-(methyl(2-((1-methylcyclopropyl)amino)ethyl)amino)pyridin-2-yl)thio)methyl)phenyl)-N-methylmethanesulfonamide] | D (Category D: ≥6.5) | < 316 | – | – | – |
| CCc1c(C#N)c(SCc2ccc(N(C)S(C)(=O)=O)cc2)nc(N(C)CCN(C)C)c1C#N [Example 482, N-(4-(((3,5-dicyano-6-((2-(dimethylamino)ethyl)(methyl)amino)-4-ethylpyridin-2-yl)thio)methyl)phenyl)-N-methylmethanesulfonamide] | D (Category D: ≥6.5) | < 316 | – | – | – |
| CCc1c(C#N)c(SC(C(N)=O)c2ccccc2)nc(N(C)CCN(C)CC)c1C#N (stereo not drawn) [Example 483, 2-(3,5-dicyano-4-ethyl-6-((2-(ethyl(methyl)amino)ethyl)(methyl)amino)pyridin-2-ylthio)-2-phenylacetamide] | D (Category D: ≥6.5) | < 316 | – | – | – |
| CCc1c(C#N)c(SCc2ccc(N(C)S(C)(=O)=O)cc2)nc(N(C)CCN)c1C#N [Example 484, N-(4-(((6-((2-aminoethyl)(methyl)amino)-3,5-dicyano-4-ethylpyridin-2-yl)thio)methyl)phenyl)-N-methylmethanesulfonamide] | D (Category D: ≥6.5) | < 316 | – | – | – |
| CCc1c(C#N)c(SC(C(N)=O)c2ccccc2)nc(N(C)CCN2[C@H](C)CC[C@H]2C)c1C#N (stereo partly drawn) [Example 485, 2-((3,5-dicyano-6-((2-((2R,5R)-2,5-dimethylpyrrolidin-1-yl)ethyl)(methyl)amino)-4-ethylpyridin-2-yl)thio)-2-phenylacetamide] | D (Category D: ≥6.5) | < 316 | – | – | – |
| CCc1c(C#N)c(SC(C(N)=O)c2ccccc2)nc(N(C)CCN2CC[C@H](O)C2)c1C#N (stereo partly drawn) [Example 486, 2-(3,5-dicyano-4-ethyl-6-((2-((S)-3-hydroxypyrrolidin-1-yl)ethyl)(methyl)amino)pyridin-2-ylthio)-2-phenylacetamide] | D (Category D: ≥6.5) | < 316 | – | – | – |
| CCc1c(C#N)c(SC(C(N)=O)c2ccccc2)nc(N2CCC(NC(C)(C)C(=O)OC)CC2)c1C#N (stereo not drawn) [Example 487, methyl 2-((1-(6-((2-amino-2-oxo-1-phenylethyl)thio)-3,5-dicyano-4-ethylpyridin-2-yl)piperidin-4-yl)amino)-2-methylpropanoate] | D (Category D: ≥6.5) | < 316 | – | – | – |
| CCc1c(C#N)c(SC(C(N)=O)c2ccccc2)nc(N(C)CCNCC(C)(C)C)c1C#N (stereo not drawn) [Example 488, 2-((3,5-dicyano-4-ethyl-6-(methyl(2-(neopentylamino)ethyl)amino)pyridin-2-yl)thio)-2-phenylacetamide] | D (Category D: ≥6.5) | < 316 | – | – | – |
| CCc1c(C#N)c(SC(C(N)=O)c2ccccc2)nc(N(C)CCNC2(C)CC2)c1C#N (stereo not drawn) [Example 489, 2-(3,5-dicyano-4-ethyl-6-(methyl(2-(1-methylcyclopropylamino)ethyl)amino)pyridin-2-ylthio)-2-phenylacetamide] | D (Category D: ≥6.5) | < 316 | – | – | – |
| CCc1c(C#N)c(SC(C(N)=O)c2ccccc2)nc(N(C)CCN2[C@@H](C)CC[C@@H]2C)c1C#N (stereo partly drawn) [Example 490, 2-((3,5-dicyano-6-((2-((2S,5S)-2,5-dimethylpyrrolidin-1-yl)ethyl)(methyl)amino)-4-ethylpyridin-2-yl)thio)-2-phenylacetamide] | D (Category D: ≥6.5) | 316 to 1000 | – | – | – |
| CCc1c(C#N)c(SC(C(N)=O)c2ccccc2)nc(N(C)CCNCCOC)c1C#N (stereo not drawn) [Example 491, 2-((3,5-dicyano-4-ethyl-6-((2-((2-methoxyethyl)amino)ethyl)(methyl)amino)pyridin-2-yl)thio)-2-phenylacetamide] | D (Category D: ≥6.5) | < 316 | – | – | – |
| CCc1c(C#N)c(SC(C(N)=O)c2ccccc2)nc(N2CCC(N(C)CC(C)(C)OC)CC2)c1C#N (stereo not drawn) [Example 492, 2-((3,5-dicyano-4-ethyl-6-(4-((2-methoxy-2-methylpropyl)(methyl)amino)piperidin-1-yl)pyridin-2-yl)thio)-2-phenylacetamide] | D (Category D: ≥6.5) | < 316 | – | – | – |
| CCc1c(C#N)c(SC(C(N)=O)c2ccccc2)nc(N(C)CCN(C)C)c1C#N (stereo not drawn) [Example 493, 2-((3,5-dicyano-6-((2-(dimethylamino)ethyl)(methyl)amino)-4-ethylpyridin-2-yl)thio)-2-phenylacetamide] | D (Category D: ≥6.5) | 316 to 1000 | – | – | – |
| CCc1c(C#N)c(SC(C(N)=O)c2ccccc2)nc(N(C)CCN2CC[C@@H](O)C2)c1C#N (stereo partly drawn) [Example 494, 2-(3,5-dicyano-4-ethyl-6-((2-((R)-3-hydroxypyrrolidin-1-yl)ethyl)(methyl)amino)pyridin-2-ylthio)-2-phenylacetamide] | D (Category D: ≥6.5) | < 316 | – | – | – |
| CCc1c(C#N)c(SC(C(N)=O)c2ccccc2)nc(N(C)CCNCCF)c1C#N (stereo not drawn) [Example 495, 2-((3,5-dicyano-4-ethyl-6-((2-((2-fluoroethyl)amino)ethyl)(methyl)amino)pyridin-2-yl)thio)-2-phenylacetamide] | D (Category D: ≥6.5) | 1000 to 31600 | – | – | – |
| CCc1c(C#N)c(SC(C(N)=O)c2ccccc2)nc(N2CCC(N3CCC(F)(F)C3)CC2)c1C#N (stereo not drawn) [Example 496, 2-((3,5-dicyano-6-(4-(3,3-difluoropyrrolidin-1-yl)piperidin-1-yl)-4-ethylpyridin-2-yl)thio)-2-phenylacetamide] | – | < 316 | – | 316 to 1000 nM and 398 nM | 316 to 1000 |
| CCc1c(C#N)c(SC(C(N)=O)c2ccccc2)nc(N2CCC(NCC(=O)O)CC2)c1C#N (stereo not drawn) [Example 497, 2-((1-(6-((2-amino-2-oxo-1-phenylethyl)thio)-3,5-dicyano-4-ethylpyridin-2-yl)piperidin-4-yl)amino)acetic acid] | D (Category D: ≥6.5) | 1000 to 31600 | – | – | – |
| CCc1c(C#N)c(SC(C(N)=O)c2ccccc2)nc(N(C)C2CC(N)C2)c1C#N (stereo not drawn) [Example 498, 2-((6-((3-aminocyclobutyl)(methyl)amino)-3,5-dicyano-4-ethylpyridin-2-yl)thio)-2-phenylacetamide] | D (Category D: ≥6.5) | 316 to 1000 | – | – | – |
| CCc1c(C#N)c(SCc2ccc(CS(C)(=O)=O)cc2)nc(N2CCC(N)CC2)c1C#N [Example 499, 2-(4-aminopiperidin-1-yl)-4-ethyl-6-((4-((methylsulfonyl)methyl)benzyl)thio)pyridine-3,5-dicarbonitrile] | D (Category D: ≥6.5) | < 316 | – | – | – |
| CCc1c(C#N)c(SCc2ccc(N(C)S(C)(=O)=O)cc2)nc(N(C)CCNCCF)c1C#N [Example 500] | D (Category D: ≥6.5) | 1000 to 31600 | – | – | – |
